Data on one substance can be found in patent US8895502B2, “β2-glycoprotein I peptide inhibitors” (Kansas State University Research Foundation, priority 2010, dated 2014).

Experiment [1] concerns LTB4. The experiment can be described thus: Intestinal IR, ex vivo LTB4 generation. To be noted: 40 μM peptide at 5 min prior to ischemia and 15-, 30- or 60-min post-ischemia. It is filed as in vivo, mouse.
The test system of experiment [2] is CD31. The experiment can be described thus: B16-F10 melanoma model, CD31 expression in tumors. It is filed as in vivo, mouse. As to the method: (§1) mRNA was isolated from the tumor samples that were homogenized in Trizol. The concentration of mRNA was evaluated by nanodrop and the purity by bioanalyzer. cDNA was then synthesized using random primers with the Quanta cDNA synthesis kit. Real-time PCR was then performed on a 1:100 dilution of cDNA for 18s rRNA. After 3 min denaturing at 95° C., the real-time PCR reaction consisted of 50 cycles (of 10 sec at 95° C., 20 sec at 58° C., and 10 sec at 72° C.), followed by a melt curve increasing at intervals of 0.5° from 60° C. to 95° C. RT-PCR was also performed on cDNA samples for CD31 and endoglin which are endothelial markers of angiogenesis. Fold change of each gene was determined by subtracting 18s for normalization of RNA and fold change was determined by comparing to original cells which were set to 1. Primers were obtained from Integrated DNA Technology (Coraville, Iowa) and sequences are in the table below.
OCT cryopreserved tumor sections were cut and stained similar to intestinal sections in Example 1. CD31 and Pan-endothelial expression was detected by FITC conjugated rat anti-mouse CD31 or pan-endothelial antibodies (Biolegend, San Diego, Calif.). Each experiment contained serial sections stained with the appropriate isotype control antibodies. All slides were mounted with ProLong Gold (Invitrogen) and images were obtained and analyzed as described in Example 1.

Experiment [3] relates to Fvb/N-Tg(MMTV-PyVT)634Mul/J mice mammary tumors. Description: Spontaneous breast cancer model, tumor growth. To be noted: 40 μM retro-orbital 3 times per week for 7 weeks after palpable tumor. It is filed as in vivo, mouse. As to the method:
Ten […] Fvb/N-Tg(MMTV-PyVT)634Mul/J mice were generously donated by T. A. Nguyen and maintained under 12 h light/dark cycles at Kansas State University, Division of Biology (Manhattan, Kans.). These mice are Her2^+ Estrogen receptor α/β^+, Progesterone receptor^+, p53^+ animal models that spontaneously develop breast cancer. All mice were allowed access to food and water ad libitum and maintained under specific pathogen free conditions. Research was conducted in compliance with the Animal Welfare Act and other federal statutes and regulations relating to animals and experiments involving animals and was approved by the Institutional Animal Care and Use Committee.
Mice were observed 3 times a week until tumors were palpable. Randomly, mice were assigned to receive treatment with N. Saline or peptide 296c-s. Each peptide treated mouse received β2-Glycoprotein 1 Peptide 296c-s (40 μM) by retro-orbital injection three times a week for 7 additional weeks. N. Saline treated mice received the same volume (80 μL) of 0.15M normal saline retro-orbitally three times a week as a control group.
Tumors were measured by hand with calipers three times a week for 7 weeks after the start of injection. After 7 weeks, the mice were briefly anesthetized using isofluorene followed by cervical dislocation euthanization and the tumors were harvested. The tumors were measured volumetrically. […]

The subject of experiment [4] is endoglin. The experiment can be described thus: B16-F10 melanoma model, endoglin expression in tumors. To be noted: peptide treatment on days 1-4, 6, and 8, qRT-PCR. In kind it is in vivo, mouse. How it is done: as §1
On the technique in general: Quantitative PCR measures a nucleic acid by following its amplification.

Experiment [5] concerns C57Bl/6 mice. The experiment can be described thus: Hemorrhage-induced intestinal damage and inflammation. It is filed as in vivo, mouse. To be noted: 40 uM peptide after blood loss, 2 hours post-hemorrhage. How it is done:
After a 1-week acclimatization period, mice were anesthetized using […]. Mice undergoing hemorrhage were subjected to retro-orbital removal of 30% of the calculated blood volume (approximately 0.5 mL) over a 90-second period (Fleming, S. D. et al., J. Surg. Res. 150:196-203 (2008); Hylton, D. J. et al., Shock 34:467-474 (2010); Hylton, D. J. et al., Shock 35: 134-140 (2011)). Volume of blood to be removed was based on animal weight and ranged from […] (body weight in grams×0.025). The determined blood volume was measured in water and marked on both the collection tubes and the capillary tubing used for retro-orbital punctures. This ensured that the correct amount would be withdrawn. A single retro-orbital puncture was sufficient for blood collection. The 2 hour mortality rate was less than 1%. Sham mice were subjected to similar procedures with no blood removal. Mice were randomly assigned to receive 40 uM peptide (80 ng/mouse) in a volume of 80-150 μL, or an equal volume of normal saline. To prevent spontaneous complement activation, all studies were performed in the absence of heparin. At 2 hours post-hemorrhage, mice were euthanized and tissues collected for analysis. Intestinal tissues were formalin fixed for analysis of injury and frozen sections were obtained for immunohistochemistry. […]

The subject of experiment [6] is B16-F10 mouse melanoma. The experiment can be described thus: B16-F10 melanoma model, tumor growth and vascularization. It is filed as in vivo. How it is done: The mouse melanoma cell line, B16-F10 (ATCC CRL-6475), was cultured in DMEM supplemented with 10% fetal bovine serum at 8% CO2 until confluent. C57Bl/6 mice were injected subcutaneously with 2×10^6 cells mixed 1:1 in matrigel (BD Biosciences) and tumor growth was evaluated daily for up to 10 days using calipers. Some mice received 40 μM peptide daily for the first 4 days and then every other day until termination of the study. Control mice received N. saline. At the end of the study, the tumors were dissected and tumor volume determined by saline displacement. Photomicrographs (10×) of representative B16-F10 tumors extracted from C57Bl/6 wildtype mice were taken with a Nikon CoolSnap CF camera and an Olympus SZ61 microscope.
The study was repeated using additional C57Bl/6 mice, which were injected subcutaneously with 2×10^6 cells mixed with matrigel (above) 6-10 days before tumor excision. Peptide treated mice received 40 μM peptide 296Cys-Ser on days 1, 2, 3, 4, 6, and 8 after injection (n=2-5 animals/group) or days 3, 5, 7, 9 or only on days 4, 6, and 8. At the end of the study, the tumors were excised, measured, and volume was determined by aqueous displacement. Tumors were cut in half longitudinally with one half homogenized in Trizol for RNA and the other placed in OCT for histological analysis. Both halves were snap frozen and stored at −80° C. until used.

“Also recorded” adds a separate entry of the source. Ends that are not written are not given here.

As to “H-IHFYSKNKEKKSSYTVEAHSRDGTI-OH [peptide 296Cys-Ser]”, in experiment [1], the “IR-induced LTB4, time course of administration” value is “significantly inhibited”. The “protein expression of both endothelial markers” value in experiment [2] (immunohistochemistry of tumors) is on record as “decreased”. For the same substance, the “CD31 RNA expression within the tumors” value in experiment [2] (peptide treatment on days 1-4, 6, and 8, qRT-PCR) is “attenuated”. Moreover, the “percent tumor growth compared to initial measurements” value in experiment [3] is recorded as “significantly decreased”. For the same substance, in experiment [4], the “endoglin RNA expression within the tumors” value was “attenuated”. Also, in experiment [5], the “hemorrhage-induced inflammation (PGE2 and IL-6 production)” value is listed as “significantly lower; also recorded: inhibit”; the hemorrhage-induced intestinal damage result is “significantly lower; also recorded: inhibit”. Besides, in experiment [6] (2 mice injected with melanoma cells and peptide), the “tumor vascularization (appearance)” value was “neither tumor appear vascularized”. Further, the “tumor volume, normal saline displaced” value in experiment [6] (2 mice injected with melanoma cells and peptide, day 8) is 0 to 0.1 mL. The “animals in which the tumor was either not present or had significantly diminished from the day of injection” value in experiment [6] (early treatment (days 1-4, 6, 8)) was 3 of 7. Further, the “angiogenesis in the B16F10 melanoma model” value in experiment [6] (mouse, in vivo) is listed as “attenuates angiogenesis”. In addition, in experiment [6] (repeat study, compared to untreated mice), the “tumor growth and volume” value is given as “significantly decreased”. Further, the tumor growth entry in experiment [6] (treatment on days 1-4, 6, and 8) is on record as “attenuated tumor growth; also recorded: prevented growth”. Further, the tumor growth result in experiment [6] (treatment on days 3, 5, 7, and 9) is listed as “attenuated tumor growth”.
